Results on seven compounds are retold here after ChEMBL document CHEMBL1159357, “Labdane and kaurane diterpenoids from Plectranthus fruticosus” (2003).

SMILES strings stand for the structures. ≈ marks a conversion by molar mass, not a printed value. Calls of active or inactive are those of the source. The calls are words filed in the database; no cut-off is given here.

The test system of the experiment is Staphylococcus aureus. Nature of the experiment: Antimicrobial activity against Staphylococcus aureus. Type of experiment: functional.
`C[C@@]12CCC[C@@](C)(C(=O)O)[C@H]1CC[C@@]13C[C@H](CC[C@@H]21)[C@]1(C)O[C@H]31` yielded an MIC of 31.2 µg/mL (≈ 98.1 µM).

In the case of `COC(=O)[C@]1(C)CCC[C@@]2(C)[C@@H]3CC[C@H]4C[C@@]3(CC[C@@H]21)[C@H]1O[C@@]41C`, the outcome was inactive.

As to `C=C1C[C@@]23CC[C@H]4[C@@](C)(CCC[C@@]4(C)C(=O)OC)[C@@H]2C[C@H](OC(C)=O)[C@H]1C3`, the outcome was inactive.

Consider `C=C/C(C)=C\C[C@@H]1C(=C)CC[C@@H]2C(C)(C)C[C@@H](OC(C)=O)C[C@@]12C`, for which the outcome was inactive.

Regarding `C=C/C(C)=C/C[C@H]1C(=C)CC[C@H]2C(C)(C)[C@@H](OC(C)=O)[C@H](O)C[C@]12C`, the result was inactive.

In the case of `COC(=O)[C@]1(C)CCC[C@@]2(C)[C@@H]3C[C@H](OC(C)=O)[C@H]4C[C@]3(C=C4C)CC[C@@H]21`, the outcome was inactive.

On to `C[C@@]1(CO)CCC[C@]2(C)[C@@H]1CC[C@@]13C[C@H](CC[C@@H]21)[C@]1(C)O[C@H]31`, for which the result was inactive.

For orientation: MIC means the least concentration at which growth counts as inhibited.
